Test results taken from PubChem BioAssay (NCI).
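Exposure lasted 48 hours, with cells grown in 96-well plates and compounds tested at five concentrations. GI50 marks 50% less growth. TGI denotes the concentration required for complete inhibition of growth.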 Where a SMILES comes first, the peptide text is derived from it. The star is where a group is joined. Boc = CC(C)(C)OC(=O)*

Legend:
Test in all cases: NCI-60 cell line screen, 48 h
EKVX NSCLC = tested on: EKVX NSCLC
HCC-2998 colon = tested on: HCC-2998 colon
HOP-62 NSCLC = tested on: HOP-62 NSCLC
NCI-H460 lung = tested on: NCI-H460 lung
OVCAR-3 ovarian = tested on: OVCAR-3 ovarian
OVCAR-5 ovarian = tested on: OVCAR-5 ovarian
SK-MEL-5 melanoma = tested on: SK-MEL-5 melanoma
T-47D breast = tested on: T-47D breast
UACC-62 melanoma = tested on: UACC-62 melanoma
NCI-H226 lung = tested on: NCI-H226 lung

CC(C)(C)OC(=O)NCC(=O)NCC(=O)NCC(=O)NCC(=O)O (Boc-GGGG-OH)
TGI (EKVX NSCLC): > 100 µM
TGI (HCC-2998 colon): > 100 µM
TGI (HOP-62 NSCLC): > 100 µM
TGI (NCI-H460 lung): > 100 µM
TGI (OVCAR-3 ovarian): > 100 µM
TGI (OVCAR-5 ovarian): > 100 µM
TGI (SK-MEL-5 melanoma): > 100 µM
TGI (T-47D breast): > 100 µM
TGI (UACC-62 melanoma): > 100 µM

CC(=O)O[C@]12CCCCCC1C1(O)C(O)CCC[C@H]12 (stereo partly drawn)
TGI (EKVX NSCLC): > 100 µM
TGI (HOP-62 NSCLC): > 100 µM
TGI (NCI-H226 lung): > 100 µM
TGI (NCI-H460 lung): > 100 µM
TGI (SK-MEL-5 melanoma): > 100 µM
TGI (UACC-62 melanoma): > 100 µM

COc1ccc2cc3c4cc5c(cc4cc[n+]3cc2c1OC)OCO5
TGI (EKVX NSCLC): > 100 µM
TGI (HCC-2998 colon): > 55.5 µM
TGI (HOP-62 NSCLC): 64.3 µM
TGI (NCI-H226 lung): > 100 µM
TGI (NCI-H460 lung): > 100 µM
TGI (OVCAR-3 ovarian): 21.4 µM
TGI (OVCAR-5 ovarian): > 100 µM
TGI (SK-MEL-5 melanoma): 14.1 µM
TGI (T-47D breast): > 100 µM
TGI (UACC-62 melanoma): 27.9 µM

C=CC[C@]12C[C@@H](C(=O)OC)N(C(=O)OC)[C@H]1N(S(=O)(=O)c1ccccc1)c1ccccc12
TGI (EKVX NSCLC): > 100 µM
TGI (HCC-2998 colon): > 100 µM
TGI (HOP-62 NSCLC): > 100 µM
TGI (NCI-H226 lung): > 100 µM
TGI (NCI-H460 lung): > 100 µM
TGI (OVCAR-3 ovarian): > 100 µM
TGI (OVCAR-5 ovarian): > 100 µM
TGI (SK-MEL-5 melanoma): > 100 µM
TGI (T-47D breast): > 100 µM

CC(=O)N/N=C1\NC(=O)C[C@H]2[C@@H]3CC=C4C[C@@H](OC(C)=O)CC[C@]4(C)[C@H]3CC[C@]12C
TGI (EKVX NSCLC): > 100 µM
TGI (HOP-62 NSCLC): 32.5 µM
TGI (NCI-H226 lung): 54.6 µM
TGI (OVCAR-3 ovarian): > 100 µM
TGI (OVCAR-5 ovarian): > 100 µM
TGI (SK-MEL-5 melanoma): > 100 µM
TGI (T-47D breast): > 100 µM
TGI (UACC-62 melanoma): 59 µM

O=C(NC(Cc1ccc(I)cc1)C(=O)O)c1ccc(I)cc1 (stereo not drawn)
TGI (EKVX NSCLC): > 83.6 µM
TGI (HCC-2998 colon): > 77.3 µM
TGI (HOP-62 NSCLC): > 100 µM
TGI (NCI-H226 lung): > 100 µM
TGI (NCI-H460 lung): > 100 µM
TGI (OVCAR-3 ovarian): 97.4 µM
TGI (OVCAR-5 ovarian): > 100 µM
TGI (SK-MEL-5 melanoma): > 100 µM
TGI (UACC-62 melanoma): > 82.1 µM

CC(C)/C(Cl)=N\OC(=O)Nc1ccc(C#N)cc1
TGI (EKVX NSCLC): 7.31 µM
TGI (HCC-2998 colon): 29.9 µM
TGI (HOP-62 NSCLC): 31.6 µM
TGI (NCI-H226 lung): 27.2 µM
TGI (NCI-H460 lung): 33.4 µM
TGI (OVCAR-3 ovarian): 30.5 µM
TGI (OVCAR-5 ovarian): 28.4 µM
TGI (SK-MEL-5 melanoma): 9.91 µM
TGI (T-47D breast): 40.2 µM
TGI (UACC-62 melanoma): 31 µM

CSc1c(C#N)c(N)n2c1C(=O)N(c1ccccc1)C2=S
TGI (EKVX NSCLC): > 100 µM
TGI (HCC-2998 colon): > 100 µM
TGI (HOP-62 NSCLC): > 100 µM
TGI (NCI-H226 lung): > 100 µM
TGI (NCI-H460 lung): > 100 µM
TGI (OVCAR-3 ovarian): > 100 µM
TGI (OVCAR-5 ovarian): > 100 µM
TGI (SK-MEL-5 melanoma): > 100 µM
TGI (T-47D breast): > 100 µM
TGI (UACC-62 melanoma): > 100 µM

CCN(CC)CCOc1ccc(N2C(=O)c3cc(OC)c(OC)cc3C2=O)cc1
TGI (EKVX NSCLC): > 100 µM
TGI (HCC-2998 colon): > 100 µM
TGI (HOP-62 NSCLC): > 100 µM
TGI (NCI-H226 lung): > 100 µM
TGI (NCI-H460 lung): > 100 µM
TGI (OVCAR-3 ovarian): > 100 µM
TGI (OVCAR-5 ovarian): > 100 µM
TGI (SK-MEL-5 melanoma): > 100 µM
TGI (T-47D breast): > 100 µM
TGI (UACC-62 melanoma): > 100 µM

N#CC(C#N)=CNC(=S)c1ccncc1
TGI (EKVX NSCLC): > 100 µM
TGI (HCC-2998 colon): > 100 µM
TGI (HOP-62 NSCLC): > 100 µM
TGI (NCI-H226 lung): > 100 µM
TGI (NCI-H460 lung): > 100 µM
TGI (OVCAR-3 ovarian): 1.36 µM
TGI (OVCAR-5 ovarian): > 100 µM
TGI (SK-MEL-5 melanoma): > 100 µM
TGI (T-47D breast): > 100 µM
TGI (UACC-62 melanoma): > 100 µM

CC1(C)N=C(C(N)=O)c2ncn(CCCO)c2N1
TGI (EKVX NSCLC): > 100 µM
TGI (HCC-2998 colon): > 100 µM
TGI (HOP-62 NSCLC): > 100 µM
TGI (NCI-H226 lung): > 100 µM
TGI (NCI-H460 lung): > 100 µM
TGI (OVCAR-3 ovarian): > 100 µM
TGI (OVCAR-5 ovarian): > 100 µM
TGI (SK-MEL-5 melanoma): > 100 µM
TGI (T-47D breast): > 100 µM
TGI (UACC-62 melanoma): > 100 µM

CCOC(=O)/C=C(\C)c1ccc(C)cc1C
TGI (EKVX NSCLC): > 100 µM
TGI (HCC-2998 colon): > 100 µM
TGI (NCI-H226 lung): > 100 µM
TGI (NCI-H460 lung): > 100 µM
TGI (OVCAR-5 ovarian): > 100 µM
TGI (SK-MEL-5 melanoma): > 100 µM

O=c1c2ccccc2nc2[nH][nH]c(=S)n12
TGI (EKVX NSCLC): > 100 µM
TGI (HOP-62 NSCLC): > 100 µM
TGI (NCI-H226 lung): > 100 µM
TGI (NCI-H460 lung): > 100 µM
TGI (OVCAR-3 ovarian): > 100 µM
TGI (OVCAR-5 ovarian): > 100 µM
TGI (SK-MEL-5 melanoma): > 100 µM
TGI (T-47D breast): > 100 µM
TGI (UACC-62 melanoma): > 100 µM

Nc1c(-c2cccc3ccccc23)c2ccc([N+](=O)[O-])cc2c(=O)n1-c1nc2ccccc2s1
TGI (EKVX NSCLC): 17.4 µM
TGI (HCC-2998 colon): > 100 µM
TGI (HOP-62 NSCLC): 27.2 µM
TGI (NCI-H226 lung): 16.3 µM
TGI (NCI-H460 lung): > 100 µM
TGI (OVCAR-3 ovarian): > 37 µM
TGI (OVCAR-5 ovarian): > 41.2 µM
TGI (SK-MEL-5 melanoma): 37.7 µM
TGI (T-47D breast): > 100 µM
TGI (UACC-62 melanoma): > 100 µM

Cc1cc(=O)c2c([nH]1)NS(=O)(=O)NC2=O
TGI (EKVX NSCLC): > 100 µM
TGI (HCC-2998 colon): > 100 µM
TGI (HOP-62 NSCLC): > 100 µM
TGI (NCI-H226 lung): > 100 µM
TGI (OVCAR-3 ovarian): > 100 µM
TGI (UACC-62 melanoma): > 100 µM

O=C1C=CC(=O)N1Nc1ccc([N+](=O)[O-])cc1[N+](=O)[O-]
TGI (EKVX NSCLC): > 100 µM
TGI (HCC-2998 colon): > 100 µM
TGI (HOP-62 NSCLC): > 100 µM
TGI (NCI-H226 lung): > 100 µM
TGI (NCI-H460 lung): > 100 µM
TGI (OVCAR-3 ovarian): > 100 µM
TGI (OVCAR-5 ovarian): > 100 µM
TGI (SK-MEL-5 melanoma): > 100 µM
TGI (UACC-62 melanoma): > 100 µM

O=C(CCCN1CCC2(CC1)CC(=O)N(N1CCOCC1)C2=O)c1ccccc1
TGI (EKVX NSCLC): > 100 µM
TGI (HCC-2998 colon): > 100 µM
TGI (HOP-62 NSCLC): > 100 µM
TGI (NCI-H226 lung): > 100 µM
TGI (OVCAR-3 ovarian): > 100 µM
TGI (OVCAR-5 ovarian): > 100 µM
TGI (SK-MEL-5 melanoma): > 100 µM
TGI (T-47D breast): > 100 µM
TGI (UACC-62 melanoma): > 100 µM

COc1ccc2cc(-c3ccc(-c4ccc(C(=N)N)s4)s3)ccc2c1
GI50 (EKVX NSCLC): 2.14 µM
TGI (EKVX NSCLC): 6.1 µM
GI50 (HCC-2998 colon): 3.35 µM
TGI (HCC-2998 colon): 11.7 µM
GI50 (HOP-62 NSCLC): 1.78 µM
TGI (HOP-62 NSCLC): 3.68 µM
GI50 (NCI-H226 lung): 23.6 µM
TGI (NCI-H226 lung): 59.3 µM
GI50 (OVCAR-3 ovarian): 2.42 µM
TGI (OVCAR-3 ovarian): 6.07 µM
GI50 (OVCAR-5 ovarian): 2.11 µM
TGI (OVCAR-5 ovarian): 4.18 µM
GI50 (SK-MEL-5 melanoma): 16.1 µM
TGI (SK-MEL-5 melanoma): 30.2 µM
GI50 (T-47D breast): 1.79 µM
TGI (T-47D breast): 4.01 µM

O=c1ccc2cc3ccc4cccc5ccc(c2o1)c3c45
TGI (EKVX NSCLC): > 100 µM
TGI (NCI-H226 lung): 58.3 µM
TGI (NCI-H460 lung): > 100 µM
TGI (SK-MEL-5 melanoma): > 100 µM
TGI (UACC-62 melanoma): > 100 µM

BrC/C=C/C[P+](c1ccccc1)(c1ccccc1)c1ccccc1
TGI (HCC-2998 colon): > 100 µM
TGI (HOP-62 NSCLC): 58.2 µM
TGI (NCI-H460 lung): > 100 µM
TGI (OVCAR-3 ovarian): 58.7 µM
TGI (OVCAR-5 ovarian): > 100 µM
TGI (SK-MEL-5 melanoma): 39.8 µM
TGI (UACC-62 melanoma): 52.3 µM

COc1ccc2nc3cc(Cl)ccc3c(NCCCNCCCNc3c4ccc(Cl)cc4nc4ccc(OC)cc34)c2c1
TGI (EKVX NSCLC): 0.89 µM
TGI (HCC-2998 colon): 0.147 µM
TGI (HOP-62 NSCLC): 0.14 µM
TGI (NCI-H226 lung): 0.177 µM
TGI (NCI-H460 lung): 0.0131 µM
TGI (OVCAR-3 ovarian): 0.61 µM
TGI (OVCAR-5 ovarian): 0.237 µM
TGI (T-47D breast): 1.23 µM
TGI (UACC-62 melanoma): 0.189 µM

CCOC(=N)n1c(=O)n(C2=NCCN2)c2ccccc21
TGI (EKVX NSCLC): > 100 µM
TGI (HCC-2998 colon): > 100 µM
TGI (HOP-62 NSCLC): > 100 µM
TGI (NCI-H226 lung): > 100 µM
TGI (NCI-H460 lung): > 100 µM
TGI (OVCAR-3 ovarian): > 100 µM
TGI (OVCAR-5 ovarian): > 100 µM
TGI (T-47D breast): > 100 µM
TGI (UACC-62 melanoma): > 100 µM

CCOc1cc(C2CC(c3ccc(NS(=O)(=O)c4cc([N+](=O)[O-])ccc4C)cc3)=NN2C(=O)c2ccccc2)ccc1O (stereo not drawn)
TGI (EKVX NSCLC): 61.4 µM
TGI (HOP-62 NSCLC): 47.2 µM
TGI (NCI-H226 lung): > 100 µM
TGI (OVCAR-3 ovarian): 36.3 µM
TGI (OVCAR-5 ovarian): > 100 µM
TGI (SK-MEL-5 melanoma): 37.8 µM
TGI (T-47D breast): 71.3 µM
